# Experimental data as given in patent EP1167342A1, “Novel substituted nitrocatechols, their use in the treatment of some central and peripheral nervous system disorders and pharmaceutical compositions containing them” (Portela & Ca., S.A., priority 2000, dated 2002).
# Experiments:
# [1] = test system: Liver COMT; assay: Ex vivo COMT activity in mouse liver homogenates after administration of test compound by gastric tube; design: species or system NMRI mice; conditions: for Liver COMT (% of control) 1h / Liver COMT (% of control) 6h: homogenates of mice liver, dose not given, means±S.E.M. of 4-8 experiments; for Liver COMT (% of control) 1h: 1 h after administration by gastric tube; for Liver COMT (% of control) 6h: 6 h after administration by gastric tube; for potency upon liver COMT compared with brain COMT: mice, after oral administration, statement in words
# [2] = target: T1, COMT (Homo sapiens, UniProt P21964); assay: COMT activity in intact SK-N-SH cells (methylation of adrenaline to metanephrine, HPLC with electrochemical detection); type: cell-based; conditions: concentration of test compound 100 nM, means ±SEM of n=4-8
# T1 construct: COMT activity was evaluated in cell monolayers by the ability to methylate adrenaline; host or cells: SK-N-SH
# T1 sequence (P21964 1-271): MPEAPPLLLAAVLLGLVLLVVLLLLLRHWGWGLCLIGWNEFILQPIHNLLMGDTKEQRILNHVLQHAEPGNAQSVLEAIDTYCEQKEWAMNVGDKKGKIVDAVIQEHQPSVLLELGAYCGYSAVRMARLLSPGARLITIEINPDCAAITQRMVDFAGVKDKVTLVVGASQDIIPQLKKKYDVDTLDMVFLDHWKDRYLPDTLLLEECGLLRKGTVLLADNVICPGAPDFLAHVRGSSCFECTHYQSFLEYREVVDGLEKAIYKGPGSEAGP
# [3] = test system: Brain COMT; assay: Ex vivo COMT activity in mouse brain homogenates after administration of test compound by gastric tube; design: species or system NMRI mice; conditions: for Brain COMT (% of control) 1h / Brain COMT (% of control) 6h: homogenates of mice brain, dose not given, means±S.E.M. of 4-8 experiments; for Brain COMT (% of control) 1h: 1 h after administration by gastric tube; for Brain COMT (% of control) 6h: 6 h after administration by gastric tube
SMILES,Liver COMT (% of control) 1h [1],Liver COMT (% of control) 6h [1],COMT activity (% of control) [2],Brain COMT (% of control) 1h [3],Brain COMT (% of control) 6h [3],potency upon liver COMT compared with brain COMT [1],"activity in the brain ([3]; conclusion, statement in words)"
"Cl.Cl.Cl.O=C(CN1CCN(c2ccccn2)CC1)c1cc(O)c(O)c([N+](=O)[O-])c1 [Compound 14, 1-(3,4-Dihydroxy-5-nitro-phenyl)-2-(4-pyridin-2-yl-piperazin-1-yl)-ethanone trihydrochloride]",33.6±5.6 % of control,50.3±5.6 % of control,8.5±0.3 % of control,95.4±11.4 % of control,121.2±11.8 % of control,–,–
"Cl.N#CC1(c2ccccc2)CCN(CCC(=O)c2cc(O)c(O)c([N+](=O)[O-])c2)CC1 [Compound 15, 1-[3-(3,4-Dihydroxy-5-nitro-phenyl)-3-oxo-propyl]-4-phenyl-piperidine-4-carbonitrile hydrochloride]",51.7±5.9 % of control,37.9±8.4 % of control,2.9±0.3 % of control,93.0±9.0 % of control,122.0±9.0 % of control,–,–
"Cl.O=C(CCN1CCCCCCC1)c1cc(O)c(O)c([N+](=O)[O-])c1 [Compound 16, 3-Azocan-1-yl-1-(3,4-dihydroxy-5-nitro-phenyl)-propan-1-one hydrochloride]",22.1±3.4 % of control,71.7±21.6 % of control,3.2±0.2 % of control,25.0±13.0 % of control,95.0±12.0 % of control,equally potent in inhibiting liver and brain COMT activity,–
"CCOC(=O)C1CCN(CCC(=O)c2cc(O)c(O)c([N+](=O)[O-])c2)CC1.Cl [Compound 17, 1-[3-(3,4-Dihydroxy-5-nitro-phenyl)-3-oxo-propyl]-piperidine-4-carboxylic acid ethyl ester hydrochloride]",36.8±2.3 % of control,69.6±8.9 % of control,7.7±0.5 % of control,96.0±5.0 % of control,109.0±14.0 % of control,–,–
"Cl.Cl.O=C(CCN1CCN(c2cccc(C(F)(F)F)c2)CC1)c1cc(O)c(O)c([N+](=O)[O-])c1 [Compound 18, 1-(3,4-Dihydroxy-5-nitro-phenyl)-3-[4-(3-trifluoromethyl-phenyl)-piperazin-1-yl]-propan-1-one dihydrochloride]",18.5±6.8 % of control,26.3±3.9 % of control,4.2±0.2 % of control,86.0±14.0 % of control,86.0±11.0 % of control,much more potent upon liver COMT than brain COMT,limited activity in the brain
"Cl.O=C(CCN1CCSCC1)c1cc(O)c(O)c([N+](=O)[O-])c1 [Compound 19, 1-(3,4-Dihydroxy-5-nitro-phenyl)-3-thiomorpholin-4-yl-propan-1-one hydrochloride]",30.3±4.0 % of control,57.9±8.6 % of control,6.8±2.3 % of control,93.0±19.0 % of control,107.0±3.0 % of control,–,–
"Cl.O=C(CCN1CCCCCC1)c1cc(O)c(O)c([N+](=O)[O-])c1 [Compound 20, 3-Azepan-1-yl-1-(3,4-dihydroxy-5-nitro-phenyl)-propan-1-one hydrochloride]",39.0±2.0 % of control,64.0±12.0 % of control,3.6±0.3 % of control,106.0±9.0 % of control,125.0±5.0 % of control,–,–
"Cl.O=C(CN1CCc2ccccc2C1)c1cc(O)c(O)c([N+](=O)[O-])c1 [Compound 21, 2-(3,4-Dihydro-1H-isoquinolin-2-yl)-1-(3,4-dihydroxy-5-nitro-phenyl)-ethanone hydrochloride]",55.1±5.0 % of control,77.5±18.0 % of control,0.9±0.6 % of control,96.0±8.0 % of control,104.0±17.0 % of control,–,–
"Cl.Cl.O=C(CCN1CCN(c2ccccc2Cl)CC1)c1cc(O)c(O)c([N+](=O)[O-])c1 [Compound 22, 3-[4-(2-Chloro-phenyl)-piperazin-1-yl]-1-(3,4-dihydroxy-5-nitro-phenyl)-propan-1-one dihydrochloride]",54.2±7.5 % of control,71.7±0.4 % of control,0.0±0.0 % of control,94.0±3.0 % of control,96.0±18.0 % of control,–,–
"Cl.Cl.Cl.Cl.O=C(CCN1CCN(c2ncccn2)CC1)c1cc(O)c(O)c([N+](=O)[O-])c1 [Compound 23, 1-(3,4-Dihydroxy-5-nitro-phenyl)-3-(4-pyrimidin-2-yl-piperazin-1-yl)-propan-1-one tetrahydrochloride]",30.0±2.5 % of control,56.3±6.0 % of control,4.4±0.9 % of control,87.0±6.0 % of control,123.0±12.0 % of control,–,–
"Cl.O=C(CCN1CCC(Cc2ccccc2)CC1)c1cc(O)c(O)c([N+](=O)[O-])c1 [Compound 24, 3-(4-Benzyl-piperidin-1-yl)-1-(3,4-dihydroxy-5-nitro-phenyl)-propan-1-one hydrochloride]",16.5±1.5 % of control,37.7±3.9 % of control,0.0±0.0 % of control,33.0±8.0 % of control,98.0±2.0 % of control,–,–
"O=C(COc1cccc2ccccc12)c1cc(O)c(O)c([N+](=O)[O-])c1 [Compound 25, 1-(3,4-Dihydroxy-5-nitro-phenyl)-2-(naphthalen-1-yloxy)-ethanone]",13.7±1.9 % of control,31.1±5.5 % of control,0.0±0.0 % of control,62.8±5.1 % of control,92.4±10.8 % of control,–,–
"CC1CCCCN1CCC(=O)c1cc(O)c(O)c([N+](=O)[O-])c1.Cl (centres unmarked) [Compound 26, 1-(3,4-Dihydroxy-5-nitro-phenyl)-3-(2-methyl-piperidin-1-yl)-propan-1-one hydrochloride]",18.3±2.9 % of control,55.2±4.7 % of control,4.8±0.4 % of control,69.8±3.2 % of control,89.6±13.4 % of control,–,–
